Measured values as given in US9079906B2, “Triazolopyridazines as PAR1 inhibitors, production thereof, and use as medicaments” (Sanofi, priority 2008, dated 2015).
Structures can show the parent of a compound that is named as a salt.

The compounds below were run against PAR1 (Homo sapiens (Human), UniProt P25116) (assay: PAR1 binding test (radioligand displacement, membrane preparation)). Details: human PAR1 expressed in High Five insect cell membranes; radioligand 20 nM; read-out: Inhibition of binding IC50.
PAR1, sequence (P25116 22-425): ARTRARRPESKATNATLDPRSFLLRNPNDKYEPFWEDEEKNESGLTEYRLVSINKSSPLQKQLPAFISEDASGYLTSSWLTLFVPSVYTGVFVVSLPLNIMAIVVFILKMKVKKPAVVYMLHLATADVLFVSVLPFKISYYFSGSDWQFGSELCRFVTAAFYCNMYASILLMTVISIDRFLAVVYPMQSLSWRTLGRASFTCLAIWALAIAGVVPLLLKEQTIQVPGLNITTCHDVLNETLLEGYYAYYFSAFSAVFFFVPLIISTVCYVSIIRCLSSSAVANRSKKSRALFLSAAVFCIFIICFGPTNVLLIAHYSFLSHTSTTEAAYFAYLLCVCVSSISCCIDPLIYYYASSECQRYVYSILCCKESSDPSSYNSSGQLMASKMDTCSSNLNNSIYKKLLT
Experimental: The synthesized substances were examined in a PAR1 binding test. This tested whether the substances can inhibit the binding of a radioactively labeled PAR1 agonist known from the literature at the PAR1 receptor (Ho-Sam Ahn, Mol Pharm, 51:350-356, 1997). The human PAR1 receptor was expressed transiently in High Five insect cells. From these cells, after 48 hours, a membrane preparation was produced by standard methods, aliquoted into 10 mM Tris-HCl; 0.3 mM EDTA; 1 mM EGTA; 250 mM sucrose pH 7.5, and stored at −80° C.
The substances were preincubated with the membrane at room temperature for 15 minutes, then the radioligand (ALA-(para-F-Phe)-Arg-ChA-homoArg-(3,4-^3H-Tyr)-NH2; approx. 40 Ci/mMol) was added. The end concentration of the radioligand in the test buffer (50 mM Tris-HCl; 10 mM MgCl2; 1 mM EGTA; 0.1% BSA; 2% DMSO) was 20 nM, that of the membrane 1 mg/ml. After an incubation time of 60 minutes, 25 μL of the mixture were transferred to a 96-well MultiScreenHTS FB microtiter filtration plate (from Millipore), which had been pretreated beforehand with a 0.75% aqueous polyethyleneimine solution for 5 hours at room temperature. Thereafter, with vacuum extraction, each well was washed four times with 300 μL of buffer (50 mM Tris-HCl; 10 mM MgCl2; 1 mM EGTA). The plate was then dried overnight, 100 μl of scintillator per well were added, and the plate was analyzed after 6 hours in a Wallac MicroBeta (from PerkinElmer) liquid scintillation counter. The nonspecific binding was determined in the presence of 100 μM SCH79797 (PAR-1 antagonist; from Tocris, Cat. No. 1592) and subtracted from all measurements. The 100% value used was a control without inhibitor. The % inhibition values of a substance dilution series were used to calculate the IC50 with the aid of nonlinear regression analysis according to the 4-parameter equation.

Row | SMILES | IC50 [nM]
1 | COc1c(N2CCOCC2)cc(C(=O)Cn2nc3ccc(Cl)nn3c2=N)cc1C(C)(C)C [Example 56, 1-(3-tert-butyl-4-methoxy-5-morpholin-4-ylphenyl)-2-(6-chloro-3-imino-[1,2,4]triazolo-[4,3-b]pyridazin-2-yl)-ethanone trifluoroacetic acid salt] | 24000
2 | CCC(CC)Oc1cc(C)c2nn(CC(=O)c3cc(OCCO)c(OC)c(C(C)(C)C)c3)c(=N)n2n1 [Example 117, 1-[3-tert-butyl-5-(2-hydroxy-ethoxy)-4-methoxyphenyl]-2-[6-(1′-ethylpropoxy)-3-imino-8-methyl-[1,2,4]triazolo[4,3-b]-pyridazin-2-yl]ethanone hydrochloride] | 98
3 | CCC(CC)Oc1ccc2nn(CC(=O)c3cc(N4CCOCC4)c(OC)c(C(C)(C)C)c3)c(=N)n2n1 [Example 14, 1-(3-tert-butyl-4-methoxy-5-morpholin-4-ylphenyl)-2-[6-(1-ethylpropoxy)-3-imino-[1,2,4]triazolo[4,3-b]pyridazin-2-yl)ethanone trifluoroacetic acid salt] | 279
4 | CCNC(=O)c1nn2/c(=N/C)n(CC(=O)c3cc(OCCO)c(OC)c(C(C)(C)C)c3)nc2c(C)c1C [Example 207, N-ethyl-2-{2-[3-tert-butyl-5-(2-hydroxyethoxy)-4-methoxy-phenyl]-2-oxoethyl}-7,8-dimethyl-3-[(E)-methylimino]-2,3-dihydro-[1,2,4]triazolo[4,3-b]pyridazine-6-carboxamide hydrochloride] | 174
5 | CCOc1nn2c(=N)n(CC(=O)c3cc(OCCCO)c(OC)c(C(C)(C)C)c3)nc2c(CC)c1CC [Example 197, 1-[3-tert-butyl-5-(3-hydroxy-propoxy)-4-methoxyphenyl]-2-(6-ethoxy-7,8-diethyl-3-imino-[1,2,4]triazolo[4,3-b]pyridazin-2-yl)ethanone hydrochloride] | 149
6 | CCOc1nn2/c(=N/C)n(CC(=O)c3cc(OCCO)cc(C(C)(C)C)c3)nc2c(C)c1C [Example 163, 1-[3-tert-butyl-5-(2-hydroxy-ethoxy)phenyl]-2-{6-ethoxy-7,8-dimethyl-3-[(E)-methylimino]-[1,2,4]triazolo[4,3-b]pyridazin-2-yl}ethanone hydrochloride] | 364
7 | CCC(CC)Oc1ccc2nn(CC(=O)c3cc(OCCOC)cc(C(C)(C)C)c3)c(=N)n2n1 [Example 50, 1-[3-tert-butyl-5-(2-methoxy-ethoxy)phenyl]-2-[6-(1-ethylpropoxy)-3-imino-[1,2,4]triazolo[4,3-b]pyridazin-2-yl]ethanone hydrochloride] | 631
8 | Cc1c(OC(C)C)nn2c(=N)n(CC(=O)c3cc(OCCO)cc(C(C)(C)C)c3)nc2c1C [Example 215, 1-[3-tert-butyl-5-(2-hydroxy-ethoxy)phenyl]-(3-imino-6-isopropoxy-7,8-dimethyl-[1,2,4]triazolo[4,3-b]pyridazin-2-yl)ethanone hydrochloride] | 219
9 | CCC(CC)Oc1cc(C)c2nn(CC(=O)c3cc(OCCO)cc(S(F)(F)(F)(F)F)c3)c(=N)n2n1 [Example 161, 2-[6-(1-ethylpropoxy)-3-imino-8-methyl-[1,2,4]triazolo[4,3-b]pyridazin-2-yl]-1-[3-(2-hydroxy-ethoxy)-5-(pentafluorosulfanyl)-phenyl]ethanone trifluoroacetic acid salt] | 365
10 | CCOc1nn2c(=N)n(CC(=O)c3cc(OC)cc(S(F)(F)(F)(F)F)c3)nc2cc1N(CC)CC [Example 84, 2-(7-diethylamino-6-ethoxy-3-imino-[1,2,4]triazolo[4,3-b]pyridazin-2-yl)-1-[3-methoxy-5-(pentafluorosulfanyl)-phenyl]ethanone trifluoroacetic acid salt] | 9800
11 | COc1c(OCCCCO)cc(C(=O)Cn2nc3c(C)cc(OCC4CC4)nn3c2=N)cc1C(C)(C)C [Example 199, 1-[3-tert-butyl-5-(4-hydroxy-butoxy)-4-methoxyphenyl]-2-(6-cyclopropylmethoxy-3-imino-8-methyl-[1,2,4]triazolo[4,3-b]pyridazin-2-yl)ethanone hydrochloride] | 206
12 | CCOc1nn2c(=N)n(CC(=O)c3cc(OCCCF)cc(C(C)(C)C)c3)nc2c(C)c1C [Example 222, 1-[3-tert-butyl-5-(3-fluoro-propoxy)phenyl]-2-(6-ethoxy-3-imino-7,8-dimethyl-[1,2,4]triazolo[4,3-b]pyridazin-2-yl)ethanone hydrochloride] | 416
13 | CCOc1nn2c(=N)n(CC(=O)c3cc(OCCCCO)c(OC)c(C(C)(C)C)c3)nc2c(C)c1C [Example 178, 1-[3-tert-butyl-5-(4-hydroxy-butoxy)-4-methoxyphenyl]-2-(6-ethoxy-3-imino-7,8-dimethyl-[1,2,4]triazolo[4,3-b]pyridazin-2-yl)ethanone hydrochloride] | 126

More lines, in order of falling IC50, values ahead:

Row | IC50 [nM] | SMILES
14 | 2500 | CCOc1cc(C)c2nn(CC(=O)c3cc(OC(COC)COC)cc(C(C)(C)C)c3)c(=N)n2n1 [Example 127, 1-[3-tert-butyl-5-(2-methoxy-1-methoxymethylethoxy)phenyl]-2-(6-ethoxy-3-imino-8-methyl-[1,2,4]triazolo[4,3-b]pyridazin-2-yl)ethanone hydrochloride]
15 | 1400 | Cc1cc(OCC2(C)COC2)nn2c(=N)n(CC(=O)c3cc(OCCO)cc(C(C)(C)C)c3)nc12 [Example 236, 1-[3-tert-butyl-5-(2-hydroxy-ethoxy)phenyl]-2-[3-imino-8-methyl-6-(3-methyloxetan-3-ylmethoxy)-[1,2,4]triazolo[4,3-b]-pyridazin-2-yl]ethanone hydrobromide]
16 | 1400 | COCCCOc1cc(C(=O)Cn2nc3c(C)cc(OCCO)nn3c2=N)cc(C(C)(C)C)c1 [Example 101, 1-[3-tert-butyl-5-(3-methoxy-propoxy)phenyl]-2-[6-(2-hydroxyethoxy)-3-imino-8-methyl-[1,2,4]triazolo[4,3-b]pyridazin-2-yl]ethanone hydrochloride]
17 | 827 | CCOc1nn2c(=N)n(CC(=O)c3cc(N4CCOCC4)c(OC)c(C(C)(C)C)c3)nc2cc1CC [Example 144, 1-(3-tert-butyl-4-methoxy-5-morpholin-4-ylphenyl)-2-(6-ethoxy-7-ethyl-3-imino-[1,2,4]triazolo[4,3-b]pyridazin-2-yl)ethanone trifluoroacetic acid salt]
18 | 484 | CC(C)Oc1cc(OC(C)C)c2nn(CC(=O)c3cc(OCCO)cc(C(C)(C)C)c3)c(=N)n2n1 [Example 240, 1-[3-tert-butyl-5-(2-hydroxy-ethoxy)phenyl]-2-(3-imino-6,8-diisopropoxy-[1,2,4]triazolo[4,3-b]pyridazin-2-yl)ethanone hydrochloride]
19 | 234 | CCOc1nn2c(=N)n(CC(=O)c3cc(C(C)(C)C)cc(C(C)(C)OC)c3)nc2c(C)c1C [Example 230, 1-[3-tert-butyl-5-(1-methoxy-1-methylethyl)phenyl]-2-(6-ethoxy-3-imino-7,8-dimethyl-[1,2,4]triazolo[4,3-b]pyridazin-2-yl)ethanone hydrochloride]
20 | 183 | CCOc1cc(CC)c2nn(CC(=O)c3cc(OCCCO)c(OC)c(C(C)(C)C)c3)c(=N)n2n1 [Example 174, 1-[3-tert-butyl-5-(3-hydroxy-propoxy)-4-methoxyphenyl]-2-(6-ethoxy-8-ethyl-3-imino-[1,2,4]triazolo[4,3-b]pyridazin-2-yl)ethanone hydrochloride]
21 | 155 | CCOc1nn2c(=N)n(CC(=O)c3cc(OCCO)cc(C(C)(C)C)c3)nc2c(CC)c1C [Example 221, 1-[3-tert-butyl-5-(2-hydroxy-ethoxy)phenyl]-2-(6-ethoxy-8-ethyl-3-imino-7-methyl-[1,2,4]triazolo[4,3-b]pyridazin-2-yl)ethanone hydrochloride]
22 | 119 | CCN(CC)c1nn2c(=N)n(CC(=O)c3cc(OCCCO)c(OC)c(C(C)(C)C)c3)nc2c(C)c1C [Example 186, 1-[3-tert-butyl-5-(3-hydroxy-propoxy)-4-methoxyphenyl]-2-(6-diethylamino-3-imino-7,8-methyl-[1,2,4]triazolo[4,3-b]pyridazin-2-yl)ethanone hydrochloride]
23 | 113 | CCNC(=O)c1nn2/c(=N/C)n(CC(=O)c3cc(OCCCO)c(OC)c(C(C)(C)C)c3)nc2c(C)c1C [Example 239, N-ethyl-2-{2-[3-tert-butyl-5-(3-hydroxypropoxy)-4-methoxy-phenyl]-2-oxoethyl}-7,8-dimethyl-3-[(E)-methylimino]-2,3-dihydro-[1,2,4]triazolo[4,3-b]pyridazine-6-carboxamide hydrochloride]
24 | 107 | CCC(CC)Oc1cc(C)c2nn(CC(=O)c3cc(OCCO)cc(C(C)(C)C)c3)c(=N)n2n1 [Example 89, 1-[3-tert-butyl-5-(2-hydroxyethoxy)phenyl]-2-[6-(1-ethylpropoxy)-3-imino-8-methyl-[1,2,4]triazolo[4,3-b]pyridazin-2-yl]ethanone hydrochloride]
